System: C57BL/6 mice
Test: animal or person
Assay type: in vivo
Details: Mus musculus, sc, 0.5 h, s.c. administration, 30 min, 55° C. water, read-out: ED50 (mg/kg) at 30 min on C57BL/6 mice in Warm-water Tail-flick Test

CCOC[C@@]1(CCc2ccc(F)cn2)CCN(C(C)(C)c2ccc(C)nc2)C1 [Compound 372, (S)-2-(2-(3-(ethoxymethyl)-1-(2-(6-methylpyridin-3-yl)propan-2-yl)pyrrolidin-3-yl)ethyl)-5-fluoropyridine]
ED50: < 10 mg/kg

CC(=O)Nc1ccc(CN2CCC(/C=C/c3ccccc3)(c3cccc(F)n3)CC2)cc1 [Compound 47, (E)-N-(4-((4-(6-fluoropyridin-2-yl)-4-styrylpiperidin-1-yl)methyl)phenyl)acetamide]
ED50: > 10 mg/kg

CCOC[C@@]1(CCc2ccsc2)CCN(Cc2ccc(C)nc2)C1 [Compound 318, (S)-5-((3-(ethoxymethyl)-3-(2-(thiophen-3-yl)ethyl)pyrrolidin-1-yl)methyl)-2-methylpyridine]
ED50: < 10 mg/kg

CC(=O)Nc1ccc(CN2CCC(CCc3ccccc3)(C3CC=CCO3)CC2)cc1 (stereo not shown) [Compound 73, N-(4-((4-(3,6-dihydro-2H-pyran-2-yl)-4-phenethylpiperidin-1-yl)methyl)phenyl)acetamide]
ED50: > 10 mg/kg

CC(=O)Nc1ccc(CN2CCC(/C=C/Cc3ccccc3)(c3ccccn3)CC2)cc1 [Compound 46, (E)-N-(4-((4-(3-phenylprop-1-enyl)-4-(pyridin-2-yl)piperidin-1-yl)methyl)phenyl)acetamide]
ED50: > 10 mg/kg

CCOCC1(CCc2ccc(C)s2)CCN(Cc2cnn(C)c2)CC1 [Compound 266, 4-(ethoxymethyl)-1-((1-methyl-1H-pyrazol-4-yl)methyl)-4-(2-(5-methylthiophen-2-yl)ethyl)piperidine]
ED50: > 10 mg/kg

Cc1nc(CN2CCC(CCc3ccccc3)(C3CCCO3)C2)cs1 (stereo not shown) [Compound 197, 2-methyl-4-((3-phenethyl-3-(tetrahydrofuran-2-yl)pyrrolidin-1-yl)methyl)thiazole]
ED50: > 10 mg/kg

CCOCC1(CCc2ccccc2)CCN(Cc2ccc(C(=O)OC)cc2)CC1 [Compound 144, methyl 4-((4-(ethoxymethyl)-4-phenethylpiperidin-1-yl)methyl)benzoate]
ED50: > 10 mg/kg

CC(=O)Nc1ccc(CN2CCC(/C=C/c3ccccn3)(c3ccccn3)CC2)cc1 [Compound 44, (E)-N-(4-((4-(pyridin-2-yl)-4-(2-(pyridin-2-yl)vinyl)piperidin-1-yl)methyl)phenyl)acetamide]
ED50: > 10 mg/kg

CCOC[C@@]1(CCc2ccc(C)s2)CCN(Cc2ccc(C)nc2)C1 [Compound 408, (S)-5-((3-(ethoxymethyl)-3-(2-(5-methylthiophen-2-yl)ethyl)pyrrolidin-1-yl)methyl)-2-methylpyridine]
ED50: < 10 mg/kg

CC(=O)Nc1ccc(CN2CCC(/C=C/c3ccccc3)(c3ccccn3)CC2)cc1 [Compound 33, (E)-N-(4-((4-(pyridin-2-yl)-4-styrylpiperidin-1-yl)methyl)phenyl)acetamide]
ED50: > 10 mg/kg

CC(=O)Nc1ccc(CN2CCC(CCc3ccccc3)(COc3ccccc3)CC2)cc1 [Compound 114, N-(4-((4-phenethyl-4-(phenoxy-methyl)piperidin-1-yl)methyl)phenyl)acet-amide]
ED50: > 10 mg/kg

Cc1ccc(CN2CC[C@@](CO)(CCc3cccs3)C2)cn1 [Compound 413, (S)-(1-((6-methylpyridin-3-yl)methyl)-3-(2-(thiophen-2-yl)ethyl)pyrrolidin-3-yl)methanol]
ED50: < 10 mg/kg

NC(=O)c1ccc(CN2CCC(CCc3ccccc3)(c3ccccn3)CC2)cc1 [Compound 55, 4-((4-phenethyl-4-(pyridin-2-yl)piperidin-1-yl)methyl)benzamide]
ED50: > 10 mg/kg

CC(=O)Nc1ccc(CN2CCC(c3ccccn3)(C(O)c3ccccc3)CC2)cc1 (stereo not shown) [Compound 45, N-(4-((4-(hydroxy(phenyl)methyl)-4-(pyridin-2-yl)piperidin-1-yl)methyl)phenyl)acetamide]
ED50: > 10 mg/kg

CCOCC1(/C=C/c2ccc3ccccc3c2)CCN(Cc2ccc(NC(C)=O)cc2)CC1 [Compound 168, (E)-N-(4-((4-(ethoxymethyl)-4-(2-(naphthalen-2-yl)vinyl)piperidin-1-yl)methyl)phenyl)acetamide]
ED50: > 10 mg/kg

CCOCC1(CCc2cc(C)sc2C)CCN(C2(c3ccc(C)nc3)CC2)C1 (stereo not shown) [Compound 374, 5-(1-(3-(2-(2,5-dimethylthiophen-3-yl)ethyl)-3-(ethoxy-methyl)pyrrolidin-1-yl)cyclopropyl)-2-methylpyridine]
ED50: < 10 mg/kg

CCOCC1(CCc2ccccc2)CCN(Cc2ccc(Nc3cnccn3)cc2)C1 (stereo not shown) [Compound 206, N-(4-((3-(ethoxymethyl)-3-phenethylpyrrolidin-1-yl)methyl)phenyl)pyrazin-2-amine]
ED50: > 10 mg/kg

CCOCC1(CCc2ccc(F)cc2)CCN(C(C)c2ccc(C)nc2)C1 (stereo not shown) [Compound 295, 5-(1-(3-(ethoxymethyl)-3-(4-fluoro-phenethyl)pyrrolidin-1-yl)ethyl)-2-methylpyridine]
ED50: < 10 mg/kg

COCC1(CCc2ccccc2)CCN(Cc2ccc(NC(C)=O)cc2)CC1 [Compound 72, N-(4-((4-(methoxymethyl)-4-phenethylpiperidin-1-yl)methyl)phenyl)acetamide]
ED50: > 10 mg/kg

CCOC[C@@]1(CCc2ccc(F)s2)CCN(C(C)(C)c2ccc(C)nc2)C1 [Compound 365, (S)-5-(2-(3-(ethoxymethyl)-3-(2-(5-fluorothiophen-2-yl)ethyl)pyrrolidin-1-yl)propan-2-yl)-2-methylpyridine]
ED50: < 10 mg/kg

CC(=O)Nc1ccc(CN2CCC(CCc3ccccc3)(c3ccncc3)CC2)cc1 [Compound 7]
ED50: > 10 mg/kg

CCOCC1(CCc2ccccc2)CCN(Cc2ccc(NC(N)=O)cc2)CC1 [Compound 83, 1-(4-((4-(ethoxymethyl)-4-phenethylpiperidin-1-yl)methyl)phenyl)urea]
ED50: > 10 mg/kg

CCOC[C@@]1(CCc2ccc(F)cc2)CCN(C2(c3cnc(C)cc3CC)CC2)C1 [Compound 436, (S)-5-(1-(3-(ethoxymethyl)-3-(4-fluoro-phenethyl)pyrrolidin-1-yl)cyclopropyl)-4-ethyl-2-methylpyridine]
ED50: < 10 mg/kg

Cc1ccc(CN2[C@@H](C)CC(CCc3ccc(F)cc3)(c3ccccn3)C[C@@H]2C)cn1 (stereo partly drawn) [Compound 418, 5-(((2S,6S)-4-(4-fluorophenethyl)-2,6-dimethyl-4-(pyridin-2-yl)piperidin-1-yl)methyl)-2-methylpyridine]
ED50: > 10 mg/kg

CC(=O)Nc1ccc(CN2CCC(CCc3ccccc3)(c3noc(C)n3)CC2)cc1 [Compound 11]
ED50: > 10 mg/kg

CCOCC1(CCc2ccccc2)CCN(Cc2ccc(-n3nccn3)cc2)CC1 [Compound 158]
ED50: > 10 mg/kg

CC(=O)Nc1ccc(CN2CCC(/C=C/c3ccccc3)(c3cccnc3)CC2)cc1 [Compound 48, (E)-N-(4-((4-(pyridin-3-yl)-4-styrylpiperidin-1-yl)methyl)phenyl)acetamide]
ED50: > 10 mg/kg

CC(=O)Nc1ccc(CN2CCC(CCc3ccccc3)(c3ncc[nH]3)CC2)cc1 [Compound 1]
ED50: > 10 mg/kg

COC(=O)C1(CCc2ccccc2)CCCN(Cc2ccc(NC(C)=O)cc2)C1 (stereo not shown) [Compound 29, methyl 1-(4-acetamidobenzyl)-3-phenethylpiperidine-3-carboxylate]
ED50: > 10 mg/kg

CCOCC1(CCc2ccccc2)CCN(Cc2ccc(C#N)cc2)CC1 [Compound 151, 4-((4-(ethoxymethyl)-4-phenethylpiperidin-1-yl)methyl)benzonitrile]
ED50: > 10 mg/kg

CCOC[C@@]1(CCc2cccs2)CCN(C(C)(C)c2ccc(C)nc2)C1 [Compound 353, (S)-5-(2-(3-(ethoxymethyl)-3-(2-(thiophen-2-yl)ethyl)pyrrolidin-1-yl)propan-2-yl)-2-methylpyridine]
ED50: < 10 mg/kg

CCOC[C@@]1(CCc2cccs2)CCN(Cc2cccnc2)C1 [Compound 275, (S)-3-((3-(ethoxymethyl)-3-(2-(thiophen-2-yl)ethyl)pyrrolidin-1-yl)methyl)pyridine]
ED50: < 10 mg/kg

Fc1cncc(CN2CCC(CCc3ccccc3)(C3CCCO3)C2)c1 (stereo not shown) [Compound 241, 3-fluoro-5-((3-phenethyl-3-(tetrahydrofuran-2-yl)pyrrolidin-1-yl)methyl)pyridine]
ED50: > 10 mg/kg

CCOCC1(CCc2ccccc2)CCN(Cc2ccc(NC(C)=O)cn2)CC1 [Compound 92, N-(6-((4-(ethoxymethyl)-4-phenethylpiperidin-1-yl)methyl)pyridin-3-yl)acetamide]
ED50: > 10 mg/kg

CCOCC1(CCc2ccccc2)CCN(Cc2ccc(-c3nnn[nH]3)cc2)CC1.Cl [Compound 154, 1-(4-(1H-tetrazol-5-yl)benzyl)-4-(ethoxymethyl)-4-phenethylpiperidine HCl]
ED50: > 10 mg/kg

CC(=O)Nc1ccc(CN2CCC(CCc3ccccc3)(c3ccccc3)CC2)cc1 [Compound 4]
ED50: > 10 mg/kg

Cc1ccc(CN2CC[C@](CCc3ccsc3)([C@@H]3CCCO3)C2)cn1 [Compound 348, 2-methyl-5-(((S)-3-((S)-tetrahydrofuran-2-yl)-3-(2-(thiophen-3-yl)ethyl)pyrrolidin-1-yl)methyl)pyridine]
ED50: < 10 mg/kg

CC(C)C(=O)Nc1ccc(CN2CCC(CCc3ccccc3)(c3ccccn3)CC2)cc1 [Compound 18, N-(4-((4-phenethyl-4-(pyridin-2-yl)piperidin-1-yl)methyl)phenyl)iso-butyramide]
ED50: > 10 mg/kg

CCOCC1(CCc2ccsc2)CCN(Cc2ccc(NC(C)=O)cc2)C1 (stereo not shown) [Compound 178, N-(4-((3-(ethoxymethyl)-3-(2-(thiophen-3-yl)ethyl)pyrrolidin-1-yl)methyl)phenyl)acetamide]
ED50: < 10 mg/kg

CC(=O)Nc1ccc(CN2CCC(CCc3ccccc3)(C3OC3C)CC2)cc1 (stereo not shown) [Compound 118, N-(4-((4-(3-methyloxiran-2-yl)-4-phenethylpiperidin-1-yl)methyl)phenyl)acetamide]
ED50: > 10 mg/kg

CCOCC1(CCc2ccsc2)CCN(Cc2ccc(C)nc2C)C1 (stereo not shown) [Compound 306, 3-((3-(ethoxymethyl)-3-(2-(thiophen-3-yl)ethyl)pyrrolidin-1-yl)methyl)-2,6-dimethylpyridine]
ED50: < 10 mg/kg

CCOC[C@@]1(CCc2cccs2)CCN(C2(c3ccc(C)nc3)CC2)C1 [Compound 379, (S)-5-(1-(3-(ethoxymethyl)-3-(2-(thiophen-2-yl)ethyl)pyrrolidin-1-yl)cyclopropyl)-2-methylpyridine]
ED50: < 10 mg/kg

Source: patent US11584765B2 (priority 2017, dated 2023)
